Test results reported in ChEMBL document CHEMBL3046901, “3D-pharmacophore model based virtual screening to identify dual-binding site and selective acetylcholinesterase inhibitors” (Med Chem Res, 2011).

Target: Acetylcholinesterase (Homo sapiens, UniProt P22303)
Assay: Inhibition of acetylcholinesterase (unknown origin)

Chain of Acetylcholinesterase (P22303 whole entry): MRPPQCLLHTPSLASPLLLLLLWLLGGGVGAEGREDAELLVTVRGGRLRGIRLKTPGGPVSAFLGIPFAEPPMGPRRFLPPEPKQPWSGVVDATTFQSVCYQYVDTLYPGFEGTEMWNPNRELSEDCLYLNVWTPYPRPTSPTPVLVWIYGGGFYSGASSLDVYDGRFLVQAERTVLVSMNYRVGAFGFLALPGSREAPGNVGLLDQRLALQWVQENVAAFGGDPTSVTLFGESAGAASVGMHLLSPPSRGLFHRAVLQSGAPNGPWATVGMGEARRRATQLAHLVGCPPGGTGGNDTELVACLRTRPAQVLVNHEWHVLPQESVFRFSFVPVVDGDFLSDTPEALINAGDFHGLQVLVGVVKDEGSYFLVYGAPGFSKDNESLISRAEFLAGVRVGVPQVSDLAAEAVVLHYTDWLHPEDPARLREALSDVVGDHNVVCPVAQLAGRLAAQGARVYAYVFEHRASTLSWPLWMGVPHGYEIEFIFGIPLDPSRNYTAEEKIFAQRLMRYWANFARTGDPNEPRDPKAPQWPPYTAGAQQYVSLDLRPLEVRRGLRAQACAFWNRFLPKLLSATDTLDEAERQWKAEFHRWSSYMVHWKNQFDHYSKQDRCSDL

Row | Compound | IC50 [nM]
1 | CNCOc1cccc(CN(C)CCCCCCCOc2ccc3c(=O)c4ccccc4oc3c2)c1 | 0.32
2 | CCN(CCCCCOc1ccc2c(=O)c3ccccc3oc2c1)Cc1cccc(OC(=O)NC)c1 | 0.82
3 | CN(CCCCCOc1ccc2c(=O)c3ccccc3oc2c1)Cc1ccccc1 | 6250
